Results on four compounds are retold here after publication PMC7774954, “Interactomic affinity profiling by holdup assay: Acetylation and distal residues impact the PDZome-binding specificity of PTEN phosphatase” (PLoS ONE, 2020).

The test system of one assay is HTRA4-1. The assay can be described thus: Holdup assay, HTRA4-1. The assay is classed as binding, human.
The subject of a further assay is FRMPD3-1. The assay can be described thus: Holdup assay, FRMPD3-1. The assay is classed as binding, human.
The next assay has as its target T1, MAGI3 PDZ 2 (Homo sapiens, UniProt Q5TCQ9).
T1 construct: made in house; host or cells: E. coli
Put plainly: Holdup assay, MAGI3-2. The assay is classed as binding. The settings on record: for BI: MAGI3-2. Here is the method: (§1) The holdup assay was performed on a Tecan freedom Evo200 robot with 384-well plates in singlicate for the three 11-mer PTEN variants and the 13-mer PTEN peptide as described in [31, 32]. Briefly, prior to interaction assay, 2.5 μL of streptavidin resin was saturated in each well with 20 μL of biotinylated PBM peptides (42 μM) and then washed twice with an excess of free biotin, while the reference resin was incubated only with biotin. Right before the holdup experiment, the PDZ library was spiked with an internal standard of lysozyme. Then, the biotin- or PBM-saturated resin was incubated, each in a distinct well of a 384-well plate, with complete cell lysates diluted so that the concentration of the tag-PDZ present in the crude extract is adjusted at 4 μM. After a sufficient time to reach complex equilibrium (15 min.), a fast and mild filtration step is performed and the tag-PDZ concentrations were measured by capillary electrophoresis instrument (LabChip GXII, PerkinElmer, Massachusets, USA). Standard markers were used to convert migration time into molecular weight on the LabChip software and inappropriate molecular weight markers were corrected or excluded.
(§2) For filtered data, the BI was extracted with the following equation (Eq 1) that estimates the depleted fraction after superimposition of the sample and reference electropherograms: BI=Iref−Ilig/Iref (1) where Iref and Ilig are the intensities of the tag-PDZ peaks measured, for each PDZ domain/PBM peptide interaction pair, in the biotin reference and the PBM electropherograms, respectively.
(§3) BIs were transformed into dissociation constants (KD) using the following formula: KD=([PDZtot]−BI·[PDZtot])·([PBMtot]−BI·[PDZtot])/BI·[PDZtot] (2) where [PDZtot] and [PBMtot] correspond to the total concentrations of the PDZ domain (usually around 4 μM) and the PBM peptide used during the assay. Since the PBMtot concentration in the resin during the holdup assay parameter may differ from one peptide to another and remains unknown, it is impossible to directly convert BI values into KD constants. We systematically determined the KD constants for a subset of PDZ/PBM pairs by competitive FP. […] For each PBM, the average peptide concentration was calculated after outlier rejection based on the absolute distances from the median as compared to three times the standard deviation (3σ rule), with never more than 2 values rejected.

A further assay deals with DVL3-1. Put plainly: Holdup assay, DVL3-1. The class given is binding, human.
The subject of a further assay is DLG5-1. The assay can be described thus: Holdup assay, DLG5-1. The assay is classed as binding, human.
In a further assay the target is GRASP-1 (Homo sapiens, UniProt Q7Z6J2). Put plainly: Holdup assay, GRASP-1. The class given is binding. To be noted: for BI: GRASP-1.
The next assay relates to MAST4-1. The assay can be described thus: Holdup assay, MAST4-1. The assay is classed as binding, human.
The test system of a further assay is LIN7C-1. The assay can be described thus: Holdup assay, LIN7C-1. The assay is classed as binding, human.
The next assay addresses T2, GIPC2-1 (Homo sapiens, UniProt Q8TF65).
T2 sequence (Q8TF65 1-315): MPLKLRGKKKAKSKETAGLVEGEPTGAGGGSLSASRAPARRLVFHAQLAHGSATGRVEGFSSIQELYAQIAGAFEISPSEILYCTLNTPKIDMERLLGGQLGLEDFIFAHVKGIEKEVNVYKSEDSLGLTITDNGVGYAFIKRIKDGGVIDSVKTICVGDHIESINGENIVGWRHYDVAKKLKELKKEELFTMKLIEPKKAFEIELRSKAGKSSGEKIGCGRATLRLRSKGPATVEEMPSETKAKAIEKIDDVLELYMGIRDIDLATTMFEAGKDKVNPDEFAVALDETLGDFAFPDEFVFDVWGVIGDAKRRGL
The assay can be described thus: Holdup assay, GIPC2-1. The class given is binding.

In the next assay the test system is LIN7A-1. The assay can be described thus: Holdup assay, LIN7A-1. The class given is binding, human.
Another assay deals with GRIP1-7. Put plainly: Holdup assay, GRIP1-7. The assay is classed as binding, human.
The next assay relates to MAGI3-1. Put plainly: Holdup assay, MAGI3-1. The assay is classed as binding, human.
Another assay concerns LNX2-4. Put plainly: Holdup assay, LNX2-4. The assay is classed as binding, human.
A further assay addresses T3, SNX27 PDZ 1 (Homo sapiens, UniProt Q96L92).
T3 construct: made in house; host or cells: E. coli
The assay can be described thus: Holdup assay, SNX27-1. The assay is classed as binding. The settings on record: for BI: PDZ domain SNX27-1. Here is the method:
as §1, §2, §3

Structures are written as SMILES. *1 amine or outer side, *2 acyl side, *3 side chain or, on linkers, in order; H or OH if unused. Where a SMILES comes first, the peptide text is derived from it. The star is where a group is joined. X1 = O=C(CCCC[C@@H]1SC[C@@H]2NC(=O)N[C@@H]21)NCCCOCCOCCOCCCN*; Suc = O=C(CCC(=O)[*:2])[*:1]

T1 sequence (Q5TCQ9 410-492 limits assumed): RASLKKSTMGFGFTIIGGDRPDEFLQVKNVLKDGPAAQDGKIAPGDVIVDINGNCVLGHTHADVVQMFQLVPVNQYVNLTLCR
Sequence of GRASP-1 (Q7Z6J2 100-189): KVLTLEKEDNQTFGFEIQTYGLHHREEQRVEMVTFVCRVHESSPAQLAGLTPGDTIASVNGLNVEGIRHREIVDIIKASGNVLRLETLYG

With `CC[C@H](C)[C@H](NC(=O)[C@H](CCC(N)=O)NC(=O)[C@@H](NC(=O)[C@H](Cc1c[nH]cn1)NC(=O)[C@H](CCC(N)=O)NC(=O)[C@H](CC(=O)O)NC(=O)[C@H](CCC(=O)O)NC(=O)[C@H](CC(=O)O)NC(=O)CCC(=O)NCCCOCCOCCOCCCNC(=O)CCCC[C@@H]1SC[C@@H]2NC(=O)N[C@@H]21)[C@@H](C)O)C(=O)N[C@H](C(=O)N[C@@H](CCCNC(=N)N)C(=O)N[C@H](C(=O)O)C(C)C)[C@@H](C)O` [PTEN_KR] ({X1-Suc}-DEDQHTQITRV-OH), the BI with HTRA4-1 is listed as 0.004; with FRMPD3-1, -0.082; at MAGI3 PDZ 2, 0.445; in the assay with DVL3-1, 0.037; with DLG5-1, -0.041; at GRASP-1 it was 0.575. In addition, the BI in the assay on MAST4-1 was -0.027; with LIN7C-1 it was -0.071; in the assay with LIN7A-1 it was -0.026; in the assay with GRIP1-7 it was -0.06; in the assay with MAGI3-1, -0.004; in the assay on LNX2-4, -0.045. Also, the BI on SNX27 PDZ 1 amounted to 0.67. In addition, the LogKD in the assay on HTRA4-1, with FRMPD3-1, in the assay with DVL3-1, in the assay with DLG5-1, with MAST4-1 and in the assay on LIN7C-1 was 3.655 in each case. In addition, the LogKD on GIPC2-1, with LIN7A-1, in the assay with GRIP1-7, with MAGI3-1 and with LNX2-4 was 3.655 throughout. Besides, the Kd (usually the free concentration of one partner at which half of the binding sites on the other are occupied at equilibrium, for simple one-to-one binding) at GRASP-1 is 16.8 µM; at SNX27 PDZ 1, 8.32 µM.

Turning to `CC[C@H](C)[C@H](NC(=O)[C@H](CCC(N)=O)NC(=O)[C@@H](NC(=O)[C@H](Cc1c[nH]cn1)NC(=O)[C@H](CCC(N)=O)NC(=O)[C@H](CC(=O)O)NC(=O)[C@H](CCC(=O)O)NC(=O)[C@H](CC(=O)O)NC(=O)[C@H](Cc1ccccc1)NC(=O)[C@@H]1CCCN1C(=O)CCC(=O)NCCCOCCOCCOCCCNC(=O)CCCC[C@@H]1SC[C@@H]2NC(=O)N[C@@H]21)[C@@H](C)O)C(=O)N[C@H](C(=O)N[C@@H](CCCCN)C(=O)N[C@H](C(=O)O)C(C)C)[C@@H](C)O` [PTEN_13] ({X1-Suc}-PFDEDQHTQITKV-OH), the BI with HTRA4-1 was 0.011; in the assay with FRMPD3-1, -0.096; at MAGI3 PDZ 2, 0.414; with DVL3-1, -0.003; with DLG5-1, -0.048; on GRASP-1, 0.544. Besides, the BI is 0.058 in the assay with MAST4-1; -0.105 in the assay with LIN7C-1; -0.087 on GIPC2-1; -0.019 with LIN7A-1; 0.015 in the assay with GRIP1-7; -0.006 in the assay with MAGI3-1. The BI with LNX2-4 came to 0.093; at SNX27 PDZ 1, 0.717. The Kd was 21.7 µM on MAGI3 PDZ 2, 12.4 µM at GRASP-1 and 5.58 µM at SNX27 PDZ 1.

With `CC[C@H](C)[C@H](NC(=O)[C@H](CCC(N)=O)NC(=O)[C@@H](NC(=O)[C@H](Cc1c[nH]cn1)NC(=O)[C@H](CCC(N)=O)NC(=O)[C@H](CC(=O)O)NC(=O)[C@H](CCC(=O)O)NC(=O)[C@H](CC(=O)O)NC(=O)CCC(=O)NCCCOCCOCCOCCCNC(=O)CCCC[C@@H]1SC[C@@H]2NC(=O)N[C@@H]21)[C@@H](C)O)C(=O)N[C@H](C(=O)N[C@@H](CCCCN)C(=O)N[C@H](C(=O)O)C(C)C)[C@@H](C)O` [PTEN_11], the BI in the assay with HTRA4-1 was 0.062; with FRMPD3-1, -0.078; on MAGI3 PDZ 2, 0.094; in the assay on DVL3-1, 0.012; with DLG5-1, -0.042; on GRASP-1 it was 0.492. For the same compound, the BI in the assay on MAST4-1 was -0.08; in the assay with LIN7C-1, -0.041; with LIN7A-1, -0.017; with GRIP1-7, -0.03; in the assay with MAGI3-1, -0.011; in the assay on LNX2-4, -0.124. The LogKD with HTRA4-1, with FRMPD3-1, in the assay on DVL3-1, in the assay on DLG5-1, in the assay with MAST4-1 and with LIN7C-1 was 3.519 throughout. The LogKD with LIN7A-1, in the assay on GRIP1-7, with MAGI3-1 and in the assay with LNX2-4 was 3.519 in each case. The results for the dissociation constant (Kd) on GRASP-1 and at SNX27 PDZ 1 were 33.1 µM and 13.8 µM, respectively.

On to `CC[C@H](C)[C@H](NC(=O)[C@H](CCC(N)=O)NC(=O)[C@@H](NC(=O)[C@H](Cc1c[nH]cn1)NC(=O)[C@H](CCC(N)=O)NC(=O)[C@H](CC(=O)O)NC(=O)[C@H](CCC(=O)O)NC(=O)[C@H](CC(=O)O)NC(=O)CCC(=O)NCCCOCCOCCOCCCNC(=O)CCCC[C@@H]1SC[C@@H]2NC(=O)N[C@@H]21)[C@@H](C)O)C(=O)N[C@H](C(=O)N[C@@H](CCCCNC(C)=O)C(=O)N[C@H](C(=O)O)C(C)C)[C@@H](C)O` [PTEN_Ac], for which the BI in the assay with HTRA4-1 is -0.059; with FRMPD3-1, -0.12; on MAGI3 PDZ 2 it was 0.405; in the assay with DVL3-1 it was -0.002; with DLG5-1, -0.005; on GRASP-1 it was 0.757. In addition, the BI in the assay with MAST4-1 is reported as -0.003; with LIN7C-1, 0.012; in the assay on LIN7A-1 it was -0.07; in the assay on GRIP1-7, -0.071; in the assay on LNX2-4, 0.013; on SNX27 PDZ 1, 0.859. Further, the LogKD in the assay with HTRA4-1, with FRMPD3-1, in the assay on DVL3-1, in the assay with DLG5-1, with MAST4-1 and with LIN7C-1 was 3.605 throughout. The LogKD at GIPC2-1, in the assay with LIN7A-1, in the assay with GRIP1-7 and in the assay on LNX2-4 was 3.605 in each case. In addition, the results for the Kd at MAGI3 PDZ 2, on GRASP-1 and at SNX27 PDZ 1 were 38.8 µM, 8.02 µM and 4.03 µM, respectively.
